The test system of data set [1] is Rattus norvegicus. The experiment in a line: (§1) Elimination half life in Han Wistar rat at 1 mg/kg, iv. It counts as ADME, organism-based. As to conditions: in vivo.
Data set [2] deals with Rattus norvegicus. Put plainly: (§2) Volume of distribution at steady state in Han Wistar rat at 1 mg/kg, iv. In kind it is ADME, organism-based. As to conditions: in vivo.
A short description of data set [3]: Ratio of unbound AUC (0 to 7 hrs) in CSF to blood of Han Wistar rat at 2 mg/kg, po by LC-MS/MS analysis. In kind it is ADME, organism-based. The settings on record: for Kp uu: Han Wistar, CSF and blood.
A short description of data set [4]: Permeability from apical to basolateral side in MDCK2-MDR1 cells. In kind it is ADME, cell-based, Canis lupus familiaris, MDCK-II. The settings on record: dog; for Papp A→B: MDCK-MDR1.
The nature of data set [5]: Ratio of unbound AUC (0 to 7 hrs) in brain to blood of Han Wistar rat at 2 mg/kg, po by LC-MS/MS analysis. It counts as ADME, organism-based. The settings on record: for Kp uu: Han Wistar, brain and blood, read-out: K(p,uu,brain).
Data set [6] relates to Rattus norvegicus. Put plainly: AUC(0 to 24 hrs) in Han Wistar rat at 2 mg/kg, po. As to conditions: in vivo, 24 h. It counts as ADME, organism-based. On the set-up: dose 2 mg/kg, time < 24 hr, route oral.
The next data set deals with Cerebrospinal fluid. The experiment in a line: (§3) AUC (0 to 7 hrs) in Han Wistar rat CSF at 2 mg/kg, po by LC-MS/MS analysis. It counts as ADME, organism-based. The arrangement: time < 7 hr, dose 2 mg/kg, route oral. The settings on record: in vivo, 7 h.
Data set [7] relates to Blood. Put plainly: (§4) Fraction unbound in Han Wistar rat blood at 5 uM by equilibrium dialysis method. It counts as ADME, tissue-based. As to conditions: 5 µM. In general terms: In equilibrium dialysis only unbound substance equilibrates across the membrane.
In data set [8] the test system is Brain. Put plainly: (§5) AUC (0 to 7 hrs) in Han Wistar rat brain at 2 mg/kg, po by LC-MS/MS analysis. The arrangement: dose 2 mg/kg, time < 7 hr, route oral. It counts as ADME, organism-based. As to conditions: in vivo, 7 h.
Data set [9] relates to Rattus norvegicus. Put plainly: (§6) Oral bioavailability in Han Wistar rat at 2 mg/kg. As to conditions: in vivo. It counts as ADME, organism-based.
Data set [10] has as its system Brain. Put plainly: (§7) Fraction unbound in Han Wistar rat brain at 5 uM by equilibrium dialysis method. It counts as ADME, tissue-based. The settings on record: 5 µM.
In data set [11] the test system is Blood. The experiment in a line: (§8) AUC (0 to 7 hrs) in Han Wistar rat blood at 2 mg/kg, po by LC-MS/MS analysis. In kind it is ADME, organism-based. The settings on record: in vivo, 7 h. On the set-up: dose 2 mg/kg, time < 7 hr, route oral.
Data set [12] concerns Rattus norvegicus. Put plainly: Volume of distribution at steady state in Han Wistar rat at 2 mg/kg, […]. In kind it is ADME, organism-based. The settings on record: in vivo.
The target of a further data set is Cytochrome P450 2D6 (Homo sapiens, UniProt P10635). The experiment in a line: Inhibition of human CYP2D6. In kind it is ADME.
Cytochrome P450 2D6, sequence (P10635 whole entry): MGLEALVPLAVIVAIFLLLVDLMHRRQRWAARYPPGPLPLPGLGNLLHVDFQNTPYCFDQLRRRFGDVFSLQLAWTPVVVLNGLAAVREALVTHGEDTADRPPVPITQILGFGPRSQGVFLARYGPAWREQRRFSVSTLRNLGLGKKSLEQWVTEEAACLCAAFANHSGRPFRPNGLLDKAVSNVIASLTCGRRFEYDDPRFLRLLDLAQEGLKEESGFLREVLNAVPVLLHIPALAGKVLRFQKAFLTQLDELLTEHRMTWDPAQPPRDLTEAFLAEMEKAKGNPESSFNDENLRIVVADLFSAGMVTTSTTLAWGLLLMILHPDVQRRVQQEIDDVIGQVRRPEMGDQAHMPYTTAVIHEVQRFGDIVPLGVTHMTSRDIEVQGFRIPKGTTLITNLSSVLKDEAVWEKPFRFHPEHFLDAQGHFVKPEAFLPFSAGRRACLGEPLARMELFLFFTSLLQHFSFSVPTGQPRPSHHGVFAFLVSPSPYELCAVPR
Data set [13] can be described thus: Clearance in Han Wistar rat at 2 mg/kg, po. It counts as ADME, organism-based. The settings on record: in vivo.
The target in data set [14] is Epidermal growth factor receptor (Homo sapiens, UniProt P00533, L858R). It counts as cell-based, H3255.
Epidermal growth factor receptor (Homo sapiens, UniProt P00533, L858R), sequence (P00533 25-1210 L858R limits assumed): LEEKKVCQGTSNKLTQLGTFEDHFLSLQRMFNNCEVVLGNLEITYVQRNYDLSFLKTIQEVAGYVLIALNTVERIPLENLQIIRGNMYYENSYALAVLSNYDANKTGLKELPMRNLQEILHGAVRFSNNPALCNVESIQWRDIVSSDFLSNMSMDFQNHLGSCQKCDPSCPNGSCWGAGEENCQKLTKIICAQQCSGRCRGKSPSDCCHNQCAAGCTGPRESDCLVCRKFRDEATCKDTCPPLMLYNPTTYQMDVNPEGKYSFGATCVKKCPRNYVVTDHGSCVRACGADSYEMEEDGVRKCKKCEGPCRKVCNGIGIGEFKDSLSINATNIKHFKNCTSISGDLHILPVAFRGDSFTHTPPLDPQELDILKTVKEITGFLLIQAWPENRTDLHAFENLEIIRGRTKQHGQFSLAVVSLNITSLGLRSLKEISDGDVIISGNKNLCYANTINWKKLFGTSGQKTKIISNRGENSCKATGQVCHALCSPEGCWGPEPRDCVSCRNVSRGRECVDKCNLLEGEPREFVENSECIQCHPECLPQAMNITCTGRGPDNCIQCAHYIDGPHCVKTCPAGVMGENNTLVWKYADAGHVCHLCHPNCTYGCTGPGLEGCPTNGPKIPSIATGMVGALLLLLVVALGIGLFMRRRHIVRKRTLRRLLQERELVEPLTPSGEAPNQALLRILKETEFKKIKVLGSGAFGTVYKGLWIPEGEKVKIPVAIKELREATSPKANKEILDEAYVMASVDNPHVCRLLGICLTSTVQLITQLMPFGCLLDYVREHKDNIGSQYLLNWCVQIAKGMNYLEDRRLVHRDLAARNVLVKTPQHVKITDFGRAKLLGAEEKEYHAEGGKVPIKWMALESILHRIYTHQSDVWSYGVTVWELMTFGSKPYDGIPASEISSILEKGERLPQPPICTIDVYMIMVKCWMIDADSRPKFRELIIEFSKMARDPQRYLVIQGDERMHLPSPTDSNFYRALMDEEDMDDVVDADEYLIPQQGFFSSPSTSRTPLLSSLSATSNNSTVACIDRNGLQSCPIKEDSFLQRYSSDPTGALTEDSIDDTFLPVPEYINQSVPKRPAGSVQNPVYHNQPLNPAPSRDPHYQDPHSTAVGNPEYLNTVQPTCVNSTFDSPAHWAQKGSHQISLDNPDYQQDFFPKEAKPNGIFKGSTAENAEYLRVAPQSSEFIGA
In a further data set the target is Cytochrome P450 2C9 (Homo sapiens, UniProt P11712). Put plainly: Inhibition of human CYP2C9. In kind it is ADME.
Cytochrome P450 2C9, sequence (P11712 whole entry): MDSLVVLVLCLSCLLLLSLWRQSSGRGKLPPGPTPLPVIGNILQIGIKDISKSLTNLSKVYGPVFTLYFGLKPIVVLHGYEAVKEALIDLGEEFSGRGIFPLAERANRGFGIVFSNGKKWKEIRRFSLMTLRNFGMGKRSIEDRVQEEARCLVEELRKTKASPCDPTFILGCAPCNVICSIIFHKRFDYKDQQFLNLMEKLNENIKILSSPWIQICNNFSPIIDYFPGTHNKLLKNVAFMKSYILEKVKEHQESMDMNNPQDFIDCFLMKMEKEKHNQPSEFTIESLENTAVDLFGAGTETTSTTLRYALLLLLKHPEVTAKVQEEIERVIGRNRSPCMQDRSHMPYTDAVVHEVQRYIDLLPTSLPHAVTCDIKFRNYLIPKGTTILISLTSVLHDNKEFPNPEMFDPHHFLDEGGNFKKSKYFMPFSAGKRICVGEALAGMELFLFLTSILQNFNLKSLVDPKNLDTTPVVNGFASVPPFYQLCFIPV
A further data set concerns the target Cytochrome P450 3A4 (Homo sapiens, UniProt P08684). Put plainly: Inhibition of human CYP3A4. It counts as ADME.
Data set [15] is described as follows: as §3. It counts as ADME, organism-based, Cerebrospinal fluid. The arrangement: time < 7 hr, dose 2 mg/kg, route oral. As to conditions: Han Wistar, CSF.
In another data set the test system is MDR1 (P-gp). The experiment in a line: Efflux ratio of permeability from basolateral to apical side over apical to basolateral side in MDCK2-MDR1 cells. In kind it is ADME, cell-based, Canis lupus familiaris. The settings on record: dog, MDCK-MDR1.
The target of data set [16] is Epidermal growth factor receptor (Homo sapiens, UniProt P00533, EX19DEL). Put plainly: Inhibition of EGFR exon19 deletion mutant phosphorylation in human PC9 cells. In kind it is cell-based, PC-9.
Epidermal growth factor receptor (Homo sapiens, UniProt P00533, EX19DEL), sequence (P00533 whole entry, looked up, stated change not applied): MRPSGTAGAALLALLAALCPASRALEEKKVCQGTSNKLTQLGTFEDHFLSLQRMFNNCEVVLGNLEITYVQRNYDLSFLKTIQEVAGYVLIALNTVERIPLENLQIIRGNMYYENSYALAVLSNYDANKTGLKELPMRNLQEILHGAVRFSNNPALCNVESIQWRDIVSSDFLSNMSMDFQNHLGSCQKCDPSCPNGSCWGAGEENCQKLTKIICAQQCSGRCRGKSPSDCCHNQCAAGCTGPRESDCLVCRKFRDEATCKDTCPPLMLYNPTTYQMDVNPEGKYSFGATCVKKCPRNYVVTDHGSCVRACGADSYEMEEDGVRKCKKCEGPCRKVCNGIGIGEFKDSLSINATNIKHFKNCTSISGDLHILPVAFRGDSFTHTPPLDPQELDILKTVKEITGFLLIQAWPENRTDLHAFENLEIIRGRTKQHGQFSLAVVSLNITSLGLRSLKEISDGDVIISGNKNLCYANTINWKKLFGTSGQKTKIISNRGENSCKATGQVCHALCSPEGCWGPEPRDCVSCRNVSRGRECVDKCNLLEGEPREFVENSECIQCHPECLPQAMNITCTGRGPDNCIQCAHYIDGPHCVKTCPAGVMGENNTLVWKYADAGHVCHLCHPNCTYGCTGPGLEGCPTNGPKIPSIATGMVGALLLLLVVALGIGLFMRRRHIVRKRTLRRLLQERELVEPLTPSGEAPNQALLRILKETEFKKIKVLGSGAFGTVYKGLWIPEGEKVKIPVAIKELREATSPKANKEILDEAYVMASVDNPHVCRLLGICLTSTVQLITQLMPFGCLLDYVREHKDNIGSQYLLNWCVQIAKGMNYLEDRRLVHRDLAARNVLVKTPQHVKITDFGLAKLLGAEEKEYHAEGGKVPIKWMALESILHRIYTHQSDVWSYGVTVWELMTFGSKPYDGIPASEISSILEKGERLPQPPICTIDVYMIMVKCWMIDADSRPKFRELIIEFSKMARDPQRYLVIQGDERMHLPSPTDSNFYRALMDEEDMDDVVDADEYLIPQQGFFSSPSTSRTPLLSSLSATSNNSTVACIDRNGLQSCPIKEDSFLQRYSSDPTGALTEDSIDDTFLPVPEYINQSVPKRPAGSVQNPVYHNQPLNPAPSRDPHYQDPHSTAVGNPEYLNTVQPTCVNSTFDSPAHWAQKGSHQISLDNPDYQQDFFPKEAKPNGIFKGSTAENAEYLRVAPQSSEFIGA
Data set [17] is described as follows: as §4. The settings on record: Han Wistar. It counts as ADME, tissue-based.
Data set [18] can be described thus: as §5. As to conditions: Han Wistar, brain. It counts as ADME, organism-based. The arrangement: dose 2 mg/kg, time < 7 hr, route oral.
The nature of data set [19]: as §6. In kind it is ADME, organism-based. As to conditions: Han Wistar, in vivo.
The nature of data set [20]: as §7. In kind it is ADME, tissue-based. The settings on record: Han Wistar, brain.
In data set [21] the target is Voltage-gated inwardly rectifying potassium channel KCNH2 (Homo sapiens, UniProt Q12809). The experiment in a line: Inhibition of human ERG by patch clamp assay. (Patch clamp records ionic current or voltage across a cell membrane.)
Voltage-gated inwardly rectifying potassium channel KCNH2, sequence (Q12809 whole entry): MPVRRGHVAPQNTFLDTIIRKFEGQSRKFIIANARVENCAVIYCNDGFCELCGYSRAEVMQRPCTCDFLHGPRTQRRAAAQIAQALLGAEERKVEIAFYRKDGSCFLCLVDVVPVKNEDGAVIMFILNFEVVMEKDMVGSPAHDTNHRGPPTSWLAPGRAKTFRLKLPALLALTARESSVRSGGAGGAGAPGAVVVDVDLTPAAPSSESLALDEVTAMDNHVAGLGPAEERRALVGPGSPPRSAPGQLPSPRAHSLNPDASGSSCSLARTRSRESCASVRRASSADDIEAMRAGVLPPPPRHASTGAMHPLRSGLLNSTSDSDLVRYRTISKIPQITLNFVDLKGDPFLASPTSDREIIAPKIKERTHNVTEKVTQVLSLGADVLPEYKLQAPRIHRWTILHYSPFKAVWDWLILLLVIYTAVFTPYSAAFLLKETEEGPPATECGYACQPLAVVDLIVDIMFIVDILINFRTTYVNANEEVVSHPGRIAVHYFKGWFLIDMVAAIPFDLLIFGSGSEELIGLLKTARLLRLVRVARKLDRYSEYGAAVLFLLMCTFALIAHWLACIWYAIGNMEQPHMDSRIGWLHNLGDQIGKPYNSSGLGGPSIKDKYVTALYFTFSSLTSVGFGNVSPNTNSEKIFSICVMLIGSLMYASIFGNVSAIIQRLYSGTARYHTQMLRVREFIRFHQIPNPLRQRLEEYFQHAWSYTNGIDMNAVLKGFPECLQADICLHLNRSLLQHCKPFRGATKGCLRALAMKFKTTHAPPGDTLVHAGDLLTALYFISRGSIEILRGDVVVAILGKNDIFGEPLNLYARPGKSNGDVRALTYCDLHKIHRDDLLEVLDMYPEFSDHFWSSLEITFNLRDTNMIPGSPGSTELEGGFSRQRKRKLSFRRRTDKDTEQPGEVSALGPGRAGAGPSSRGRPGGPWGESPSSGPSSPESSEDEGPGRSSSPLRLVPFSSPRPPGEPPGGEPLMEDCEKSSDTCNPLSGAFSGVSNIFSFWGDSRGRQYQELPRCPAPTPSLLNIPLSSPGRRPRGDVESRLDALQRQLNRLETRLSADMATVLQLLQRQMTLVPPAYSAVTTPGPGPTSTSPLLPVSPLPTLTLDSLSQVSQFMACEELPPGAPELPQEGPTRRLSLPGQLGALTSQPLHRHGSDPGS
The nature of data set [22]: Elimination half life in Han Wistar rat at 2 mg/kg, po. The settings on record: in vivo, read-out: beta t1/2 (converted). It counts as ADME, organism-based.
The nature of data set [23]: as §8. As to conditions: Han Wistar, blood. The arrangement: dose 2 mg/kg, time < 7 hr, route oral. In kind it is ADME, organism-based.
A short description of data set [24]: AUC(0 to 24 hrs) in Han Wistar rat at 1 mg/kg, iv. In kind it is ADME, organism-based. On the set-up: time < 24 hr, dose 1 mg/kg, route intravenous. As to conditions: in vivo.
Data set [25] is described as follows: as §1. As to conditions: Han Wistar, in vivo, read-out: beta t1/2 (converted). In kind it is ADME, organism-based.
Data set [26] is described as follows: as §2. In kind it is ADME, organism-based. The settings on record: Han Wistar, in vivo, read-out: Vdss.
A short description of data set [27]: Cmax in Han Wistar rat at 5 mg/kg, po. In kind it is ADME, organism-based. On the set-up: dose 5 mg/kg, route oral. As to conditions: in vivo.
Data set [28] in a line: Clearance in Han Wistar rat at 1 mg/kg, iv. It counts as ADME, organism-based. The settings on record: in vivo.
A short description of data set [29]: AUC(0 to 24 hrs) in Han Wistar rat at 5 mg/kg, po. In kind it is ADME, organism-based. As to conditions: in vivo. On the set-up: dose 5 mg/kg, time < 24 hr, route oral.
Data set [30] is described as follows: Oral bioavailability in Han Wistar rat at 5 mg/kg. The settings on record: in vivo. It counts as ADME, organism-based.
The nature of data set [31]: Drug metabolism in rat hepatocytes assessed as piperazine oxidation. In kind it is ADME, cell-based, Hepatocyte.
Data set [32] is described as follows: Tmax in Han Wistar rat at 5 mg/kg, po. It counts as ADME, organism-based. As to conditions: in vivo.

Where only a bound is given, the exact number is not on record here.

Cytochrome P450 3A4, sequence (P08684 whole entry): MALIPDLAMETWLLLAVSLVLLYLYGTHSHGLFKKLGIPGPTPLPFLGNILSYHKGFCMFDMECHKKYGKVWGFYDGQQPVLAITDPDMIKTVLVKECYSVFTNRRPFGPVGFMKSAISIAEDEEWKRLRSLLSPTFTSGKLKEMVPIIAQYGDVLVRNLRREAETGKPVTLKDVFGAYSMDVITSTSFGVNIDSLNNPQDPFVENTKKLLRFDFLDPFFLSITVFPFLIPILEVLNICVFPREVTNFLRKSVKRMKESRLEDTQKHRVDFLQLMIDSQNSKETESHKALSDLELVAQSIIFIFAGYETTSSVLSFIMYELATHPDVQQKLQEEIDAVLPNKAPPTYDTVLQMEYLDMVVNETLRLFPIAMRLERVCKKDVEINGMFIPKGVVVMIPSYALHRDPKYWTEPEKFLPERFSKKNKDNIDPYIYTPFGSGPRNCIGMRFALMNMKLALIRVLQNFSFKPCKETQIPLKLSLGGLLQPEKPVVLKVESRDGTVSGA

`COc1cc2ncnc(Nc3cccc(Cl)c3F)c2cc1OC(=O)N1CCN(C)C2CC21` (stereo in doubt; 1j): in the data set with Rattus norvegicus [1], the “beta t1/2” value turned out to be 1.3 h. In the data set with Rattus norvegicus [2], this molecule returned a Vdss of 2.5 L/kg. For the same molecule, in [3] (csf), the “K(p,uu,CSF)” value is given as 1.6. The molecule further registered a Papp in [4] (mdck-ii) of 76 ×10⁻⁶ cm/s. Besides, the “K(p,uu,brain)” value in data set [5] (brain) came to 0.74. Moreover, the AUC in the data set with Rattus norvegicus [6] turned out to be 2.315 µM·h; with Cerebrospinal fluid it was 0.028 µM·h; in the data set on Brain [8], 0.727 µM·h; in the data set on Blood [11], 0.74 µM·h. In addition, the Fu came to 2.4% with Blood [7] and 1.8% with Brain [10]. In the data set with Rattus norvegicus [9], this molecule displayed an F of 84%.
`COc1cc2ncnc(Nc3cccc(Cl)c3F)c2cc1CN1CCOCC1`: in the data set on Rattus norvegicus [12], the Vdss came out at 2.8 L/kg. The results for the Kp uu in data set [3] and in [5] were 0.76 and 0.47, respectively. In addition, the IC50 was above 10000 nM against Cytochrome P450 2D6; 6.6 nM in data set [14]; above 10000 nM on Cytochrome P450 2C9; above 10000 nM on Cytochrome P450 3A4; 3.8 nM in data set [16]; 17000 nM in data set [21]. In addition, the CL/F in data set [13] came to 59 mL/min/kg. The molecule further gave a Papp A→B in data set [4] of 32 ×10⁻⁶ cm/s. In addition, the values for the AUC(0-t) at 7 h in data set [15], in data set [18] and in data set [23] were 0.05 µM·h, 1.01 µM·h and 0.834 µM·h, respectively. In the data set with MDR1 (P-gp), the efflux ratio stood at 0.33. Further, the values for the fraction unbound at 5 µM in data set [17] and in data set [20] were 0.078 and 0.03, respectively. In [19], the bioavailability stood at 44%. For the same molecule, the half-life in data set [22] was 1.1 h.
As to `COc1cc2ncnc(Nc3cccc(Cl)c3F)c2cc1OC(=O)N1CCN(C)CC1`, the area under the curve AUC(0-t) at 24 h was 1.71 µM·h in data set [24] and 3.91 µM·h in data set [29]. The half-life in [25] was 2.6 h. For the same molecule, the Vd in data set [26] stood at 1.8 L/kg. Further, the Kp uu amounted to 0.52 in [3] and 0.34 in [5]. This molecule came in with a Papp A→B in data set [4] of 28 ×10⁻⁶ cm/s. The Cmax in [27] was 2020 nM. Also, in data set [14], the IC50 was 5 nM. The clearance in data set [28] worked out at 22 mL/min/kg. Also, the bioavailability in [30] amounted to 45%. The AUC(0-t) at 7 h in data set [15] is 0.031 µM·h; in data set [18], 0.825 µM·h; in data set [23], 0.722 µM·h. Moreover, in the data set on MDR1 (P-gp), the efflux ratio was 0.37. For the same molecule, the results for the fraction unbound at 5 µM in data set [17] and in data set [20] were 0.084 and 0.025, respectively. For the same molecule, the Drug metabolism entry in [31] is listed as “metabolite_detected”. Besides, in data set [32], the Tmax amounted to 0.25 h.

As a reminder, the Papp is the rate of passage across a membrane or cell layer, normalised by area and donor concentration. A word on the AUC: it is concentration integrated over time. Low readings indicate low exposure, high ones high exposure. The IC50 is the midpoint of a concentration-inhibition curve. Lower therefore signals higher potency. As usually defined, the CL/F is clearance divided by bioavailability, as obtained after extravascular dosing. A word on the Papp A→B: it is how fast a substance crosses the layer from the apical side. As a reminder, the AUC(0-t) is the area under the concentration-time curve up to a stated or last time point. Usually efflux ratio stands for the permeability from basolateral to apical divided by that in the opposite direction, in the common usage. A word on the fraction unbound: it is the share of the substance not bound to proteins or other matrix. High values mean much free substance, low ones little free substance. Usually bioavailability stands for the share of a dose that reaches the circulation, judged against a reference dose that is usually intravenous. Low readings indicate poor availability, high ones good availability. In general, Cmax refers to the maximum level reached in the sampled fluid or tissue. As usually defined, the clearance is the volume of plasma or blood freed of the substance per unit of time. Low readings indicate inefficient removal, high ones efficient removal. By Tmax is commonly meant the time at which the peak concentration occurs.

Source of the values: ChEMBL document CHEMBL3621142, “Discovery and Evaluation of Clinical Candidate AZD3759, a Potent, Oral Active, Central Nervous System-Penetrant, Epidermal Growth Factor Receptor Tyrosine Kinase Inhibitor” (J Med Chem, 2015).
